Results on 3 compounds are retold here after ChEMBL document CHEMBL5029167, “Development of Asialoglycoprotein-Mediated Hepatocyte-Targeting Antitumor Prodrugs Triggered by Glutathione” (J Med Chem, 2021).

Activity calls are given as the source filed them. No cut-off for these calls is given here.

The nature of data set [1]: Stability of compound in GSH measured upto 24 hrs. Type of data set: physicochemical. The conditions noted are these: GSH (glutathione), read-out: Stability.
Data set [2] can be described thus: Toxicity in Kunming mouse implanted with mouse H22 cells assessed as change in body weight at 0.8 mg/kg after 7 days. The conditions noted are these: in vivo, 168 h, time 7 day. The format is organism-based.
Data set [3] deals with H22. In words: Antitumor activity against mouse H22 cells implanted in Kunming mouse assessed as tumor growth inhibition at 0.8 mg/kg measured on day 7. The format is functional. Also on record: scale not given: the % may be the effect or the level left. As to conditions: time 7 day.
A short description of data set [4]: Toxicity in Kunming mouse implanted with mouse H22 cells assessed as change in organ weight at 0.8 mg/kg after 7 days. Type of data set: organism-based. The conditions noted are these: in vivo, 168 h, time 7 day.
Data set [5] deals with HepG2. As to the kind of experiment: Induction of apoptosis in human HepG2 cells assessed as viable cells at 12 uM measured after 24 hrs by annexinV-FITC/propidium iodide double staining based flow cytometric analysis (reference value: 93.6 %). The format is functional. As to conditions: read-out: Activity. (A flow cytometer gives signals particle by particle.)
In data set [6] the test system is HepG2. In words: Induction of apoptosis in human HepG2 cells assessed as viable cells at 9 uM measured after 24 hrs by annexinV-FITC/propidium iodide double staining based flow cytometric analysis (reference value: 93.6 %). Type of data set: functional. The conditions noted are these: read-out: Activity.
The subject of data set [7] is HepG2. As to the kind of experiment: Induction of apoptosis in human HepG2 cells assessed as upregulation of caspase 3 protein expression at 2 to 8 uM after 24 hrs. The conditions noted are these: dose 2-8 µM. Type of data set: functional, cell-based.
Data set [8] deals with HepG2. In words: Cell cycle arrest in human HepG2 cells assessed as accumulation at G2/M phase at 8 uM measured after 24 hrs by propidium iodide staining based flow cytometric analysis (reference value: 7.63%). Type of data set: functional.
Data set [9] concerns HepG2. As to the kind of experiment: Induction of apoptosis in human HepG2 cells assessed as necrotic cells at 12 uM measured after 24 hrs by annexinV-FITC/propidium iodide double staining based flow cytometric analysis (reference value: 0.0 %). Type of data set: functional.
Data set [10] has as its system HepG2. In words: Cell cycle arrest in human HepG2 cells assessed as accumulation at S phase at 2 uM measured after 24 hrs by propidium iodide staining based flow cytometric analysis (reference value: 37.10%). Type of data set: functional.
Data set [11] relates to HepG2. In words: Cell cycle arrest in human HepG2 cells assessed as accumulation at G0/G1 phase at 2 uM measured after 24 hrs by propidium iodide staining based flow cytometric analysis (reference value: 55.27%). The format is functional.
Data set [12] can be described thus: Toxicity in Kunming mouse implanted with mouse H22 cells assessed as change in body weight at 3.5 mg/kg after 7 days. The conditions noted are these: in vivo, 168 h, time 7 day. Type of data set: organism-based.
Data set [13] has as its system HepG2. In words: Cell cycle arrest in human HepG2 cells assessed as accumulation at G0/G1 phase at 8 uM measured after 24 hrs by propidium iodide staining based flow cytometric analysis (reference value: 55.27%). Type of data set: functional.
For data set [14], the system named is HepG2. As to the kind of experiment: Induction of apoptosis in human HepG2 cells assessed as necrotic cells at 6 uM measured after 24 hrs by annexinV-FITC/propidium iodide double staining based flow cytometric analysis (reference value: 0.0 %). The format is functional.
The nature of data set [15]: Drug uptake in human HeLa cells at 10 uM after 15 mins by confocal scanning microscopic analysis. Type of data set: ADME, cell-based. The conditions noted are these: 0.25 h.
Data set [16] relates to HepG2. In words: Induction of apoptosis in human HepG2 cells assessed as early apoptotic cells at 9 uM measured after 24 hrs by annexinV-FITC/propidium iodide double staining based flow cytometric analysis (reference value: 6.3 %). Type of data set: functional.
Data set [17] deals with HepG2. As to the kind of experiment: Cell cycle arrest in human HepG2 cells assessed as accumulation at G2/M phase at 4 uM measured after 24 hrs by propidium iodide staining based flow cytometric analysis (reference value: 7.63%). The format is functional.
A short description of data set [18]: Drug distribution in Kunming mouse kidney at 3.5 mg/kg, iv measured after 3 hrs by confocal scanning microscopic analysis. Type of data set: ADME, organism-based. As to conditions: in vivo.
Data set [19] relates to HepG2. As to the kind of experiment: Cell cycle arrest in human HepG2 cells assessed as accumulation at G0/G1 phase at 4 uM measured after 24 hrs by propidium iodide staining based flow cytometric analysis (reference value: 55.27%). The format is functional.
In data set [20] the test system is HepG2. As to the kind of experiment: Induction of apoptosis in human HepG2 cells assessed as early apoptotic cells at 6 uM measured after 24 hrs by annexinV-FITC/propidium iodide double staining based flow cytometric analysis (reference value: 6.3 %). Type of data set: functional.
The test system of data set [21] is HepG2. In words: Cell cycle arrest in human HepG2 cells assessed as accumulation at S phase at 4 uM measured after 24 hrs by propidium iodide staining based flow cytometric analysis (reference value: 37.10%). The format is functional.
A short description of data set [22]: Drug uptake in human SGC-7901 cells at 10 uM after 15 mins by confocal scanning microscopic analysis. Type of data set: ADME, cell-based. As to conditions: sgc-7901, 0.25 h.
Data set [23] can be described thus: Toxicity in Kunming mouse implanted with mouse H22 cells assessed as change in organ weight at 3.5 mg/kg after 7 days. Type of data set: organism-based. As to conditions: in vivo, 168 h, time 7 day.
Data set [24] has as its system HepG2. As to the kind of experiment: Induction of morphological changes in human HepG2 cells assessed as chromatin condensation incubated for 24 hrs by Hoechst 33342 staining based analysis. Type of data set: functional, cell-based.
Data set [25] concerns HepG2. In words: Induction of apoptosis in human HepG2 cells assessed as necrotic cells at 9 uM measured after 24 hrs by annexinV-FITC/propidium iodide double staining based flow cytometric analysis (reference value: 0.0 %). The format is functional.
Data set [26] relates to HepG2. As to the kind of experiment: Cell cycle arrest in human HepG2 cells assessed as accumulation at G2/M phase at 2 uM measured after 24 hrs by propidium iodide staining based flow cytometric analysis (reference value: 7.63%). Type of data set: functional.
Data set [27] can be described thus: Drug distribution in Kunming mouse lung at 3.5 mg/kg, iv measured after 3 hrs by confocal scanning microscopic analysis. Type of data set: ADME, organism-based. As to conditions: in vivo.
Data set [28] is described as follows: Drug distribution in Kunming mouse spleen at 3.5 mg/kg, iv measured after 3 hrs by confocal scanning microscopic analysis. Type of data set: ADME, organism-based. The conditions noted are these: in vivo.
In data set [29] the test system is HepG2. In words: Induction of morphological changes in human HepG2 cells assessed as chromatin fragmentation incubated for 24 hrs by Hoechst 33342 staining based analysis. The format is functional, cell-based.
Data set [30] has as its system HepG2. As to the kind of experiment: Induction of apoptosis in human HepG2 cells assessed as viable cells at 6 uM measured after 24 hrs by annexinV-FITC/propidium iodide double staining based flow cytometric analysis (reference value: 93.6 %). The conditions noted are these: read-out: Activity. The format is functional.
Data set [31] is described as follows: Drug uptake in human HepG2 cells at 10 uM after 15 mins by confocal scanning microscopic analysis. The format is ADME, cell-based. The conditions noted are these: hepg2, 0.25 h.
The test system of data set [32] is H22. As to the kind of experiment: Antitumor activity against mouse H22 cells implanted in Kunming mouse assessed as tumor growth inhibition at 3.5 mg/kg measured on day 7. The conditions noted are these: time 7 day. Type of data set: functional. On the set-up: scale not given: the % may be the effect or the level left.
Data set [33] relates to HepG2. As to the kind of experiment: Induction of apoptosis in human HepG2 cells assessed as late apoptotic cells at 12 uM measured after 24 hrs by annexinV-FITC/propidium iodide double staining based flow cytometric analysis (reference value: 0.1 %). Type of data set: functional.
Data set [34] relates to HepG2. In words: Induction of apoptosis in human HepG2 cells assessed as early apoptotic cells at 12 uM measured after 24 hrs by annexinV-FITC/propidium iodide double staining based flow cytometric analysis (reference value: 6.3 %). Type of data set: functional.
For data set [35], the system named is HepG2. As to the kind of experiment: Inhibition of cell migration in human HepG2 cells after 24 hrs by crystal violet staining based inverted microscopic analysis. Type of data set: functional.
A short description of data set [36]: Drug distribution in Kunming mouse heart at 3.5 mg/kg, iv measured after 3 hrs by confocal scanning microscopic analysis. Type of data set: ADME, organism-based. As to conditions: in vivo.
The test system of data set [37] is HepG2. As to the kind of experiment: Inhibition of colony formation in human HepG2 cells after 7 days by crystal violet staining based inverted microscopic analysis. As to conditions: time 7.0 day. Type of data set: functional, cell-based.
Data set [38] concerns HepG2. As to the kind of experiment: Cytotoxicity against human HepG2 cells at 2 to 10 uM after 48 hrs by MTT assay. Type of data set: functional, cell-based. As to conditions: HepG2, 48 h. (Tetrazolium assays rely on reduction of a dye to a coloured formazan, in cell work by metabolically active cells.)
In data set [39] the test system is HepG2. As to the kind of experiment: Cell cycle arrest in human HepG2 cells assessed as accumulation at S phase at 8 uM measured after 24 hrs by propidium iodide staining based flow cytometric analysis (reference value: 37.10%). The format is functional.
The nature of data set [40]: Drug uptake in human A549 cells at 10 uM after 15 mins by confocal scanning microscopic analysis. The format is ADME, cell-based. The conditions noted are these: a549, 0.25 h.
The test system of data set [41] is HepG2. As to the kind of experiment: Induction of apoptosis in human HepG2 cells assessed as late apoptotic cells at 9 uM measured after 24 hrs by annexinV-FITC/propidium iodide double staining based flow cytometric analysis (reference value: 0.1 %). The format is functional.
The nature of data set [42]: Drug distribution in Kunming mouse liver at 3.5 mg/kg, iv measured after 3 hrs by confocal scanning microscopic analysis. Type of data set: ADME, organism-based. As to conditions: in vivo.
Data set [43] has as its system HepG2. As to the kind of experiment: Induction of apoptosis in human HepG2 cells assessed as late apoptotic cells at 6 uM measured after 24 hrs by annexinV-FITC/propidium iodide double staining based flow cytometric analysis (reference value: 0.1 %). Type of data set: functional.

`C=C[C@]1(C)CC[C@@H](C(=C)Cn2cc(CN3C(=O)c4cccc5c(N6CCN(C(=O)OCCCCCCOCc7cn([C@@H]8O[C@H](CO)[C@H](O)[C@H](O)[C@H]8O)nn7)CC6)ccc(c45)C3=O)nn2)C[C@H]1C(=C)C`: the remaining at 24 h in data set [1] was 99%.

`O=c1[nH]cc(F)c(=O)[nH]1` [FLUOROURACIL]: the Activity entry in [2] was “Non-Toxic”; in data set [3], 26.41%; in data set [4] it was “Non-Toxic”.

Turning to `C=C[C@]1(C)CC[C@@H](C(=C)Cn2cc(CN3C(=O)c4cccc5c(N6CCNCC6)ccc(c45)C3=O)nn2)C[C@H]1C(=C)C`, the viability at 12 µM in data set [5] stood at 4.7%. For the same compound, in data set [6], the viability at 9 µM was determined as 9.7%. Besides, the result in data set [7], in data set [24] and in data set [29] was Active. The Activity in data set [8] is 67.4%; in data set [9], 0%; in [10], 29.93%; in data set [11], 63.46%; in data set [12], “Non-Toxic”; in data set [13] it was 71.44%. In addition, the Activity in data set [14] is 0%; in [16], 89.4%; in [17], 5.29%; in data set [19], 64.24%; in data set [20], 46.5%; in data set [21], 30.47%. In addition, the Activity entry in data set [23] is given as “Non-Toxic”; in [25] it was 0%; in data set [26], 6.61%; in data set [32], 33.65%; in data set [33], 0.3%; in [34], 94.9%. Besides, the Activity in data set [39] was found to be 21.81%; in [41], 0.9%; in [43] it was 1.9%. Besides, the Drug uptake entry in [15], in [18], in data set [22], in [27], in data set [28] and in data set [31] was “Not Active” each time. Moreover, the Drug uptake result in data set [36], in data set [40] and in [42] was “Not Active” throughout. In addition, the viability at 6 µM in [30] was determined as 51.5%. In addition, the inhibition entry in data set [35] and in [37] was “Dose-Dependent Effect” each time. Besides, in data set [38], the IC50 came to 6.11 µM.

Broadly, the IC50 is the concentration at which inhibition is half-maximal.
